# What was measured:
# Assay in all cases: relative viability (nuclei count vs DMSO), 5 days (fraction); higher = more cells survive
# [1] = compound: C1=CC=C2C(=C1)N=C(S2)C(C#N)C3=NC(=NC=C3)NCCC4=CN=CC=C4 + CC(=O)c1c(C)c2cnc(Nc3ccc(N4CCNCC4)cn3)nc2n(C2CCCC2)c1=O [Palbociclib] (partner 0.5 µM)
# Outline: (§1)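 After 5 days of treatment, lung cancer cells in 1536-well plates were fixed and stained in a single step (final 0.05% Triton X-100, 1% formaldehyde, 1 ug/ml Hoechst) and their nuclei counted on 4× images. Treatment had been applied by pin tool the day after seeding as one drug alone or as a fixed anchor-drug dose with five library-drug doses (not always all listed) in √10 steps. Relative viability is the nuclei count of treated wells divided by that of vehicle wells, and values are medians of duplicate plates.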
# [2] = compound: C1=CC=C2C(=C1)N=C(S2)C(C#N)C3=NC(=NC=C3)NCCC4=CN=CC=C4 + N=C(N)NC(=N)NCCc1ccccc1 [Phenformin] (partner 250 µM)
# Outline: as §1
# Vandetanib + Phenformin = compound: COc1cc2/c(=N/c3ccc(Br)cc3F)nc[nH]c2cc1OCC1CCN(C)CC1 [Vandetanib] + N=C(N)NC(=N)NCCc1ccccc1 [Phenformin] (partner 250 µM)
# Outline: as §1
# [3] = compound: C1=CC=C2C(=C1)N=C(S2)C(C#N)C3=NC(=NC=C3)NCCC4=CN=CC=C4 + CC1(C)CCC(c2ccc(Cl)cc2)=C(CN2CCN(c3ccc(C(=O)NS(=O)(=O)c4ccc(N[C@H](CCN5CCOCC5)CSc5ccccc5)c(S(=O)(=O)C(F)(F)F)c4)cc3)CC2)C1 [Navitoclax] (partner 0.5 µM)
# Outline: as §1
Cell Line,relative viability ([1]; first compound 0.005 µM),relative viability ([1]; first compound 0.01581 µM),relative viability ([1]; first compound 0.05 µM),relative viability ([1]; first compound 0.1581 µM),relative viability ([1]; first compound 0.5 µM),relative viability ([2]; first compound 0.005 µM),relative viability ([2]; first compound 0.01581 µM),relative viability ([2]; first compound 0.05 µM),relative viability ([2]; first compound 0.1581 µM),relative viability ([2]; first compound 0.5 µM),relative viability (Vandetanib + Phenformin; first compound 0.02 µM),relative viability (Vandetanib + Phenformin; first compound 0.06325 µM),relative viability (Vandetanib + Phenformin; first compound 0.2 µM),relative viability (Vandetanib + Phenformin; first compound 0.6325 µM),relative viability (Vandetanib + Phenformin; first compound 2 µM),relative viability ([3]; first compound 0.005 µM),relative viability ([3]; first compound 0.01581 µM),relative viability ([3]; first compound 0.05 µM),relative viability ([3]; first compound 0.1581 µM),relative viability ([3]; first compound 0.5 µM)
NCI-H2009,0.223,0.168,0.215,0.229,0.206,0.466,0.477,0.476,0.508,0.437,0.495,0.462,0.416,0.443,0.361,1.13,1.17,1.14,1.22,1.21
SK-MES-1,0.311,0.292,0.315,0.334,0.288,0.677,0.776,0.648,0.767,0.62,0.657,0.608,0.62,0.581,0.471,1.76,1.19,1.3,1.28,1.02
H3255,0.367,0.309,0.303,0.327,0.305,0.385,0.354,0.402,0.62,0.366,0.427,0.359,0.35,0.303,0.192,0.591,0.424,0.567,0.689,0.624
HCC-78,0.333,0.431,0.506,0.485,0.478,0.677,0.635,0.656,0.814,0.741,0.744,0.638,0.662,0.664,0.627,0.454,0.774,0.623,0.912,0.818
EMC-BAC-2,0.461,0.533,0.487,0.555,0.486,0.413,0.517,0.516,0.657,0.368,0.51,0.506,0.339,0.485,0.463,0.823,1.19,1.14,1.2,1.01
NCI-H2170,0.284,0.391,0.38,0.43,0.34,0.396,0.405,0.446,0.417,0.384,0.342,0.402,0.415,0.409,0.357,–,0.587,0.59,0.626,0.566
NCI-H2228,0.564,0.886,0.649,1.12,0.597,0.19,0.281,0.299,0.316,0.314,0.263,0.281,0.384,0.294,0.303,0.915,1.39,0.827,0.997,0.954
HCC-827,0.415,0.597,0.432,0.492,0.512,0.376,0.455,0.358,0.46,0.422,0.441,0.367,0.319,0.157,0.165,1.07,1.07,1.02,1.05,1.04
ChaGo-K-1,0.731,0.979,0.903,1.01,0.911,–,0.373,0.48,0.54,0.536,0.411,0.463,0.297,0.452,0.466,0.955,–,0.838,1.21,0.954
LXF-289,0.46,0.6,0.612,0.625,0.503,0.447,0.563,0.458,0.592,0.496,0.503,0.5,0.499,0.489,0.509,0.857,0.972,0.95,1,0.892
HOP-62,0.412,0.571,0.432,0.471,0.474,0.4,0.764,0.633,0.788,0.523,0.689,0.664,0.487,0.728,0.703,0.854,1.25,1.05,1.16,0.871
LOU-NH91,0.545,0.552,0.477,0.563,0.543,0.677,0.702,0.597,0.687,0.685,0.709,0.619,0.537,0.509,0.51,0.682,0.724,0.578,0.633,0.641
NCI-H1915,–,0.532,0.498,0.569,0.523,0.312,0.37,0.356,0.398,0.353,0.366,0.353,0.387,0.372,0.365,0.802,0.805,0.762,0.77,0.775
NCI-H1395,0.616,–,0.524,0.726,0.601,0.422,0.378,0.415,0.449,0.418,0.472,0.429,0.427,0.439,0.458,1.23,–,1.03,1.08,1.22
COR-L23,0.236,0.312,0.229,0.281,0.24,0.355,0.49,0.467,0.465,0.377,0.485,0.442,0.428,0.452,0.464,0.929,0.94,1.1,1.04,1.15
NCI-H1734,0.303,0.313,0.307,0.355,0.33,–,0.44,0.375,0.471,0.392,0.403,0.369,0.32,0.379,0.39,0.58,1.05,0.886,0.932,0.664

Cell Line,relative viability ([1]; first compound 0.005 µM),relative viability ([1]; first compound 0.01581 µM),relative viability ([1]; first compound 0.05 µM),relative viability ([1]; first compound 0.1581 µM),relative viability ([1]; first compound 0.5 µM),relative viability ([2]; first compound 0.005 µM),relative viability ([2]; first compound 0.01581 µM),relative viability ([2]; first compound 0.05 µM),relative viability ([2]; first compound 0.1581 µM),relative viability ([2]; first compound 0.5 µM),relative viability (Vandetanib + Phenformin; first compound 0.02 µM),relative viability (Vandetanib + Phenformin; first compound 0.06325 µM),relative viability (Vandetanib + Phenformin; first compound 0.2 µM),relative viability (Vandetanib + Phenformin; first compound 0.6325 µM),relative viability (Vandetanib + Phenformin; first compound 2 µM),relative viability ([3]; first compound 0.005 µM),relative viability ([3]; first compound 0.01581 µM),relative viability ([3]; first compound 0.05 µM),relative viability ([3]; first compound 0.1581 µM),relative viability ([3]; first compound 0.5 µM)
NCI-H2405,0.462,0.572,0.543,0.533,0.461,0.362,0.364,0.358,0.455,0.407,0.376,0.302,0.374,0.39,0.202,0.828,0.936,0.815,0.862,0.859
NCI-H2087,0.24,0.208,0.214,0.261,0.227,0.472,0.495,0.471,0.623,0.426,0.415,0.45,0.457,0.447,0.44,0.986,1.01,1.16,1,0.927
NCI-H1793,–,0.344,0.29,0.319,0.276,0.382,0.369,0.328,0.454,0.355,0.371,0.355,0.328,0.299,0.292,0.31,0.398,0.519,0.456,0.509
NCI-H2085,0.428,0.465,0.415,0.472,0.471,0.639,0.702,0.595,0.819,0.799,0.769,0.674,0.649,0.668,0.595,0.946,1.09,1.09,1.15,0.981
NCI-H2023,0.328,0.309,0.394,0.383,0.332,0.384,0.439,0.424,0.47,0.423,0.399,0.402,0.354,0.323,0.328,0.971,0.979,0.948,1.13,0.707
SW 1573,0.306,0.325,0.389,0.478,0.299,0.251,0.395,–,0.484,0.382,0.357,0.382,0.397,0.347,0.351,0.863,1.15,–,1.03,0.828
NCI-H3122,0.162,0.208,0.199,0.184,0.178,0.393,0.37,0.364,0.44,0.35,0.348,0.374,0.327,0.303,0.333,0.935,1.04,0.984,1.04,1.01
NCI-H441,0.231,0.184,0.232,0.241,0.187,–,0.993,1,0.913,0.79,0.849,0.783,0.898,0.916,0.717,–,0.625,0.513,0.575,0.48
PC-3 [JPC-3],0.592,–,0.534,0.532,0.515,0.502,0.485,0.456,0.48,0.419,0.471,0.466,0.496,0.334,0.331,0.776,0.835,0.731,0.819,0.843
NCI-H1993,0.651,0.64,0.699,0.708,0.694,0.586,0.514,0.461,0.58,0.542,0.523,0.506,0.554,0.605,0.53,0.911,0.802,0.896,0.929,0.81
NCI-H1355,0.662,0.431,0.394,0.412,0.364,0.41,0.437,0.412,0.436,0.412,0.436,0.461,0.431,0.448,0.406,0.975,0.959,0.906,1.03,0.975
NCI-H23,–,0.456,0.528,0.577,0.411,0.638,0.762,0.804,0.934,0.886,0.763,0.733,0.8,0.777,0.742,–,0.958,0.728,0.959,0.958
CAL-12T,0.422,0.327,0.429,0.673,0.41,0.539,0.433,0.584,0.619,0.485,0.536,0.539,0.446,0.411,0.242,0.993,1.38,1.11,1.35,0.993
HCC-44,0.957,0.958,0.964,0.967,0.835,0.271,0.183,0.211,0.296,0.162,0.186,0.223,0.175,0.242,0.121,0.759,1.13,0.906,1.02,0.872
NCI-H1755,0.431,0.44,0.481,0.5,0.644,0.617,0.641,0.621,0.695,0.607,0.67,0.593,0.671,0.38,0.609,0.968,1.1,1,1.15,0.948
SK-LU-1,0.412,0.399,0.31,0.41,0.395,0.323,0.593,0.529,0.608,0.475,0.518,0.405,0.464,0.491,0.558,–,0.828,0.694,1.02,1.02
